A word on the half-life: it is how long it takes for the measured level to halve. Low values mean rapid decline, high ones slow decline.

Series [1] concerns the target T1, thermolysin (Bacillus thermoproteolyticus, UniProt P00800).
T1 sequence (P00800 233-548): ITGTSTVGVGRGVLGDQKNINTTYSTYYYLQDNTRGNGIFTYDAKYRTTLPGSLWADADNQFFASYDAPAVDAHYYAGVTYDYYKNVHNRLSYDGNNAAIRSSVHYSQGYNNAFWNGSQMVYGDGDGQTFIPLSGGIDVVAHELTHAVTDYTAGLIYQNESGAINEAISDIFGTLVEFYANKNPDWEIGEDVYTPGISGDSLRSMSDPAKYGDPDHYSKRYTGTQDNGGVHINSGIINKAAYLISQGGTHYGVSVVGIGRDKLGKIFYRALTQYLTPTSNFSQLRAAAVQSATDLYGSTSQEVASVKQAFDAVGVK
In words: Thermolysin digestion of linker variants (half-life to thermolysin degradation, MALDI-TOF MS). The series is classed as in vitro ADME. The note with it: for half-life: thermolysin in digestion buffer, average ± spread of three independent trials, quantitative MALDI-TOF MS; for half-life / Half-life to thermolysin degradation, Trial 1 / Half-life to thermolysin degradation, Trial 2 / Half-life to thermolysin degradation, Trial 3: thermolysin 1 µg/µL (25 µL) added to linker 2 µg/µL (25 µL), 50 mM Tris·HCl, 0.5 mM CaCl2, pH 8.0, 37 °C, aliquots 0-420 min; for half-life / Half-life to thermolysin degradation, Trial 2 / Half-life to thermolysin degradation, Trial 3: first-order exponential decay fit; for Half-life to thermolysin degradation, Trial 1: trial 1 of three independent trials, first-order exponential decay fit of full-length linker; for Half-life to thermolysin degradation, Trial 1 / Half-life to thermolysin degradation, Trial 2 / Half-life to thermolysin degradation, Trial 3: quantitative MALDI-TOF MS with internal standard; for Half-life to thermolysin degradation, Trial 2: trial 2 of three independent trials; for Half-life to thermolysin degradation, Trial 3: trial 3 of three independent trials. The source says: O-Mannosylation is strongly preferred for proteolysis protection of a model fungal IDP. To investigate how glycan identity affects IDP proteolytic stability, we employed the naturally O-mannosylated linker from the Trichoderma reesei glycoside hydrolase family 7 cellobiohydrolase, TrCel7A, as a model.[10] This enzyme is one of the most important industrial cellulases and its linker is a well-studied O-mannosylated IDP.[11]–[14] The α-anomeric configuration was chosen since it is the only type reported so far in reducing terminal mannose residues of O-mannosylated proteins from fungi and yeasts.[8] We used […] glycopeptide synthesis[12],[15],[16] to produce four variants (Fig. 1), including the non-glycosylated linker, and measured the half-life to thermolysin degradation with MALDI-TOF MS (Fig. S1–S4 ^†).[15]–[19] […]
1.1. Experimental material and equipm ent
All commercial reagents and solvents were used as received. All LC-MS analyses were performed using a Waters Acquity TM Ultra Performance LC system equipped with Acquity UPLC® BEH 300 C4, 1.7µm, 2.1 x 100 mm column at flow rates of 0.3 mL/min. The mobile phase for LC -MS analysis was a mixture of H2O (0.1% formic acid, v /v, A) and acetonitrile (0.1% formic acid, v/v, B). […]
Mass spectrometric analysis done with a Waters SYNAPT G2-S LC-MS system was us ed to confirm the identity and homogeneity of the synthetic peptides. MALDI-TOF mas s spectrometr ic analysis done with an AB/Sciex Voyager DE-STR system was used to determine the proteolytic stability (half-life to thermolysin degradation) of the synthetic peptides (Fig. S1-S4). […]
1.3. General procedure for the thermolysin digestion of linker variants The thermolysin digestions were performed following previously described procedures.2 The digestion s of glycosylated linkers were carried out at 37 °C in 25 µL of digestion buffer (50 mM Tris·HCl buffer, 0.5 mM CaCl2, pH 8.0) with an initial linker concentration of 2 µg/µL. 25 µL of thermolysin (1 µg/µL in the digestion buffer) was added to linker solution; 1 µL aliquots were taken at specific time intervals (0, […]
µL of acetonitrile/H2O/AcOH (20/20/1, v/v) and 3 µL of standard solution [0.17 µg/µL non-glycosylated linker in acetonitrile/H2O/AcOH (20/20/1, v/v)]. Each sample was analyzed by quantitative MALDI-TOF MS to calculate the change in concentration of glycosylated linkers with time. The digestion rate was determined by monitoring and fitting data to the first-order exponential decay of the full-length glycosylated linkers over time. Digestion and analysis of non-glycosylat ed linker was done exactly a s described above for glycosylated linkers except that the Lman was used as the internal standard. All the digestion processes were repeated for three independent trials.
1.4. Temperature replica exchange simulations
Model syst ems. This work compares the dynamical and structural behavior of four variants of the Cel7A linker from Trichoderma reesei (TrCel7A). This set includes the non-glycosylated linker and the linker homogeneously decorated with O-linked α-mannosyl, α-glucosyl, and α-galactosyl moieties (Fig. S9A).
Complementary simulations and analyses were also performed with the linker decorated with longer glycans comprising mannobiosyl and galactobiosyl moieties, as well as with the putative natural decoration proposed by Harrison et al.3 (Fig. S9B) . A set of four variants of the “PT linker” was also studied, including the non -glycosylated linker and the variants with the same three glycans (Fig. S9C).
Finally, we also performed simulations of tripeptides with a single site of glyco sylation, resulting in the […]

Residues, ends and D or L forms follow the SMILES beside them. No end group written: not given here. *: point of attachment. αMan = OC[C@H]1O[C@H](*)[C@@H](O)[C@@H](O)[C@@H]1O; X2 = OC[C@H]1O[C@H](*)[C@H](O)[C@@H](O)[C@@H]1O; X1 = OC[C@H]1O[C@H](*)[C@H](O)[C@@H](O)[C@H]1O

As to `C[C@H](NC(=O)[C@@H]1CCCN1C(=O)[C@H](CCCNC(=N)N)NC(=O)[C@H](CCCNC(=N)N)NC(=O)[C@@H](NC(=O)[C@@H](NC(=O)[C@@H](NC(=O)[C@@H](NC(=O)CNC(=O)[C@@H]1CCCN1C(=O)[C@@H]1CCCN1C(=O)[C@H](CC(N)=O)NC(=O)CNC(=O)CNC(=O)[C@@H]1CCCN1C(=O)[C@@H]1CCCN1C(=O)[C@H](CC(N)=O)NC(=O)CN)[C@@H](C)O[C@H]1O[C@H](CO)[C@H](O)[C@H](O)[C@H]1O)[C@@H](C)O[C@H]1O[C@H](CO)[C@H](O)[C@H](O)[C@H]1O)[C@@H](C)O[C@H]1O[C@H](CO)[C@H](O)[C@H](O)[C@H]1O)[C@@H](C)O[C@H]1O[C@H](CO)[C@H](O)[C@H](O)[C@H]1O)C(=O)N[C@H](C(=O)N[C@H](C(=O)N[C@H](C(=O)NCC(=O)N[C@@H](CO[C@H]1O[C@H](CO)[C@H](O)[C@H](O)[C@H]1O)C(=O)N[C@@H](CO[C@H]1O[C@H](CO)[C@H](O)[C@H](O)[C@H]1O)C(=O)N1CCC[C@H]1C(=O)NCC(=O)N1CCC[C@H]1C(=O)O)[C@@H](C)O[C@H]1O[C@H](CO)[C@H](O)[C@H](O)[C@H]1O)[C@@H](C)O[C@H]1O[C@H](CO)[C@H](O)[C@H](O)[C@H]1O)[C@@H](C)O[C@H]1O[C@H](CO)[C@H](O)[C@H](O)[C@H]1O` [Lgal] (H-GNPPGGNPPGT(X1)T(X1)T(X1)T(X1)RRPAT(X1)T(X1)T(X1)GS(X1)S(X1)PGP-OH; N-terminus and C-terminus assumed), the enhancement of protection against proteolysis relative to non-glycosylated parent IDP stood at 10 fold. In addition, in series [1], the half-life stood at 9.8 ± 2 min; the “Half-life to thermolysin degradation, Trial 1” value (“Half-life … Trial 1” below) turned out to be 8.5 min; the “Half-life to thermolysin degradation, Trial 2” value (“Half-life … Trial 2” below) came out at 8.8 min; the “Half-life to thermolysin degradation, Trial 3” value (“Half-life … Trial 3” below) worked out at 12.1 min.
As to `C[C@H](NC(=O)[C@@H]1CCCN1C(=O)[C@H](CCCNC(=N)N)NC(=O)[C@H](CCCNC(=N)N)NC(=O)[C@@H](NC(=O)[C@@H](NC(=O)[C@@H](NC(=O)[C@@H](NC(=O)CNC(=O)[C@@H]1CCCN1C(=O)[C@@H]1CCCN1C(=O)[C@H](CC(N)=O)NC(=O)CNC(=O)CNC(=O)[C@@H]1CCCN1C(=O)[C@@H]1CCCN1C(=O)[C@H](CC(N)=O)NC(=O)CN)[C@@H](C)O[C@H]1O[C@H](CO)[C@@H](O)[C@H](O)[C@H]1O)[C@@H](C)O[C@H]1O[C@H](CO)[C@@H](O)[C@H](O)[C@H]1O)[C@@H](C)O[C@H]1O[C@H](CO)[C@@H](O)[C@H](O)[C@H]1O)[C@@H](C)O[C@H]1O[C@H](CO)[C@@H](O)[C@H](O)[C@H]1O)C(=O)N[C@H](C(=O)N[C@H](C(=O)N[C@H](C(=O)NCC(=O)N[C@@H](CO[C@H]1O[C@H](CO)[C@@H](O)[C@H](O)[C@H]1O)C(=O)N[C@@H](CO[C@H]1O[C@H](CO)[C@@H](O)[C@H](O)[C@H]1O)C(=O)N1CCC[C@H]1C(=O)NCC(=O)N1CCC[C@H]1C(=O)O)[C@@H](C)O[C@H]1O[C@H](CO)[C@@H](O)[C@H](O)[C@H]1O)[C@@H](C)O[C@H]1O[C@H](CO)[C@@H](O)[C@H](O)[C@H]1O)[C@@H](C)O[C@H]1O[C@H](CO)[C@@H](O)[C@H](O)[C@H]1O` [Lglc] (H-GNPPGGNPPGT(X2)T(X2)T(X2)T(X2)RRPAT(X2)T(X2)T(X2)GS(X2)S(X2)PGP-OH; N-terminus and C-terminus assumed), in series [1], the half-life was 53.7 ± 8.1 min; the “Half-life … Trial 1” value was 53.3 min; the “Half-life … Trial 2” value amounted to 62.0 min; the “Half-life … Trial 3” value was 45.9 min.
As for `C[C@H](NC(=O)[C@@H]1CCCN1C(=O)[C@H](CCCNC(=N)N)NC(=O)[C@H](CCCNC(=N)N)NC(=O)[C@@H](NC(=O)[C@@H](NC(=O)[C@@H](NC(=O)[C@@H](NC(=O)CNC(=O)[C@@H]1CCCN1C(=O)[C@@H]1CCCN1C(=O)[C@H](CC(N)=O)NC(=O)CNC(=O)CNC(=O)[C@@H]1CCCN1C(=O)[C@@H]1CCCN1C(=O)[C@H](CC(N)=O)NC(=O)CN)[C@@H](C)O[C@H]1O[C@H](CO)[C@@H](O)[C@H](O)[C@@H]1O)[C@@H](C)O[C@H]1O[C@H](CO)[C@@H](O)[C@H](O)[C@@H]1O)[C@@H](C)O[C@H]1O[C@H](CO)[C@@H](O)[C@H](O)[C@@H]1O)[C@@H](C)O[C@H]1O[C@H](CO)[C@@H](O)[C@H](O)[C@@H]1O)C(=O)N[C@H](C(=O)N[C@H](C(=O)N[C@H](C(=O)NCC(=O)N[C@@H](CO[C@H]1O[C@H](CO)[C@@H](O)[C@H](O)[C@@H]1O)C(=O)N[C@@H](CO[C@H]1O[C@H](CO)[C@@H](O)[C@H](O)[C@@H]1O)C(=O)N1CCC[C@H]1C(=O)NCC(=O)N1CCC[C@H]1C(=O)O)[C@@H](C)O[C@H]1O[C@H](CO)[C@@H](O)[C@H](O)[C@@H]1O)[C@@H](C)O[C@H]1O[C@H](CO)[C@@H](O)[C@H](O)[C@@H]1O)[C@@H](C)O[C@H]1O[C@H](CO)[C@@H](O)[C@H](O)[C@@H]1O` [Lman] (H-GNPPGGNPPGT(αMan)T(αMan)T(αMan)T(αMan)RRPAT(αMan)T(αMan)T(αMan)GS(αMan)S(αMan)PGP-OH; N-terminus and C-terminus assumed), the “Improvement of proteolytic stability over the non-glycosylated linker LNG” value in series [1] (ratio of half-lives to thermolysin degradation, relative to LNG) is 112 fold. Moreover, the “Proteolysis protection over the O-galactosylated linker (Lgal)” value in series [1] (ratio of half-lives to thermolysin degradation, relative to Lgal) was found to be 16 fold. Further, the “Proteolysis protection over the O-glucosylated linker (Lglc)” value in series [1] (ratio of half-lives to thermolysin degradation, relative to Lglc) is on record as 3 fold. In series [1], the half-life worked out at 164 ± 32.9 min; the “Half-life … Trial 1” value is 163.9 min; the “Half-life … Trial 2” value was determined as 196.4 min; the “Half-life … Trial 3” value is 130.5 min.
GNPPGGNPPGTTTTRRPATTTGSSPGP-OH [LNG]: in series [1], the half-life is 1.5 ± 0.2 min; the “Half-life … Trial 1” value is 1.6 min; the “Half-life … Trial 2” value was found to be 1.5 min; the “Half-life … Trial 3” value amounted to 1.2 min.

(Values after paper PMC5939190, “The impact of O-glycan chemistry on the stability of intrinsically disordered proteins” (Chemical Science, 2018).)
